# Entries after “also recorded” stand apart in the source; their conditions may differ.
# Tested on: MDA-MB-231 cells
# Experiment: MDA-MB-231 proliferation culture, cell counts with cisplatin and/or EMF exposure
# Type: cell-based, human
# Details: for reduction of cell number (cell count): cisplatin 20 μM, positive control, no EMF exposure, 5 days culture
# Description: MDA-MB-231 cells, a human triple-negative breast cancer cell line, were obtained at passage 40 (Sigma: 92020424). The culture media used was high glucose DMEM (Gibco: 31053-028) supplemented with 1% GlutaMAX™ (Gibco: 35050-061) and 10% fetal bovine serum (Gibco).
# Cells were thawed from frozen (−150° C.), placed in a tube with warm media and spun down for 5 minutes at 240×g. After pelleting the cells, the media was removed, and the cells resuspended and seeded into a T225 flask with 45 mL of media. Cells were placed in an incubator set to 37° C. and 5.0% CO2. Media was exchanged every 2-3 days. Cells proliferated until they reached 80-90% confluency. Upon reaching this threshold. cells were passaged. Cells were washed with DPBS and detached using TrypLE Express (Gibco). The detached cells were neutralized, centrifuged, and seeded in culture vessels at a density of 10,000 cells/cm^2.
# For experimental harvests cells were detached as when passaging and neutralized with media. A 100 μL aliquot was taken and used for cell counts. Cells were counted on a NC-200 Nucleocounter (ChemoMetec). The remaining dissociated cells were centrifuged for 2 minutes at 4000 RPM. Following centrifugation, the supernatant was aspirated, and the cell pellets were immediately frozen at −80° C. for future RNA extraction.
# Cisplatin is a platinum-based chemotherapy drug that inhibits DNA synthesis. Cisplatin is used in the treatment of many cancers, including breast cancer. Cisplatin (Millipore-Sigma: 232120) was dissolved in DPBS with 140 mM NaCl at a concentration of 1 mg/mL and stored at room temperature, protected from light. The solution was further diluted in culture media to obtain the desired concentration for experiments. DPBS with 140 mM NaCl was used as a vehicle control. Cisplatin at 20 μM was used as a positive control as this concentration reduced the cell number by more than 90%. Lower concentrations of 2 μM and 0.667 μM (one tenth and one thirtieth the concentration of the positive control, respectively) were used in combination with PEMF stimulation.
# Cells were exposed, as previously described for mesenchymal stem cells, to a spatially uniform, time-varying magnetic field using Helmholtz coils. A description of the exposure system (coils, signal generator, incubators, etc.) is described in Example One.
# Table 3 contains the parameters describing four different fields covering a wide range of shapes, intensities and frequencies. The two sinusoids are simple sine waves with no offset. The pulse waveform has a 10% duty cycle, creating sudden, large changes in the field's magnetic flux density (B). Finally, Experiment 4 consists of pairs of triangular waves with increasing separation equivalent to a decreasing frequency from 36 Hz to 10 Hz. The waveform consists of 15 pairs and has a period of approximately 900 ms. Positive results with Experiments 3 and 4 (described below) ledto repeating the exposures with the addition of a chemotherapy drug cisplatin). Additionally, Experiments 3 and 4 were also performed with “healthy” chondrocytes.
# Chemotherapy drugs, including cisplatin, are a commonplace and proven method of treating cancer tumours despite a plethora of side effects. Large doses of these drugs can be a significant monetary and health concern for many patients so any method of reducing the dosage with an adjunct therapy is welcome. To test the combined effect of cisplatin and EMF exposure, two low concentrations (2 μM and 0.667 μM) of cisplatin were added to the culture media of MDA-MB-231 cells subjected to Experiment 3 and 4 exposures. Additionally, cells were cultured with 20 μM of cisplatin and no exposure as a “positive” control. […] The exposed cell groups are plotted relative to the unstimulated vehicle sample and when cultured with the vehicle show the same decrease in cell count as in Figure H (without vehicle). […]
compound,measurement,setting,value
"N.N.[Cl][Pt][Cl] [cisplatin, Cisplatin]",effect on cell growth of adding EMF exposure to cisplatin,"cisplatin 2 μM and 0.667 μM plus EMF exposure Experiment 3 or 4, statistically significant vs cisplatin alone",further inhibited
same,effect on proliferation / cell count,"cisplatin 20 μM (high concentration), no EMF stimulation",drastic impact on the cell count; also recorded: inhibitory
same,reduction of cell number (cell count),,90%
same,reduction of cell number (cell count),listed as Cisplatin,more than 90%
same,reduction of cell counts by combined treatment (cisplatin + EMF exposure),"cisplatin at 10% of positive control concentration (2 μM) with EMF exposure (Experiment 3 or 4), relative to negative control, 5 days",more than 80%
same,effect on normalized cell count,"low concentrations of cisplatin (2 μM and 0.667 μM), relative to unstimulated vehicle",significantly lowered cell counts
